Source: patent publication US20260226101A1, “PEPTIDE WITH ANTI-INFLAMMATORY AND ANTI-MICROBIAL ACTIVITY” (priority 2023, published 2026)
Ends that are not written are not given here.

Assays:
[1] = system: LPS-induced phosphorylation of ERK1/2 and p38 MAPK; experiment: Western blot of MAPK pathway in LPS-stimulated RAW 264.7 cells; assay type: cell-based, murine
Protocol: As previously described, RAW264.7 cells were cultured and treated with LPS and synthetic peptides. After 18 h, cells were washed with PBS and lysed by incubating with RIPA lysis buffer cocktail (RIPA Lysis buffer, PMSF (1 mM), Protease inhibitor (1 μg/mL), phosphatase inhibitor (1 mM)) at […] for 30 minutes. Post incubation, cell lysate was collected by scraping cells and centrifuged at 12000 rpm for 15 min.
The protein concentration was determined using the Bicinchoninic acid kit method with bovine serum albumin as the standard (provided in the kit), according to the manufacturer's instructions. Protein bands were electrophoretically transferred to a polyvinylidene difluoride (PVDF) membrane via semi-dry transfer blotting, Membranes were blocked with 5% BSA in PBST (1% Tween 20 in PBS) at 20-24° C. for 1 h, then incubated with primary antibodies against IL-10, TLR 4, VEGF, P38 p-p38, ERK and p-ERK, the dilutions are listed in table 3., at 4° C. overnight. GAPDH was used as a protein-loading control. The membrane was washed 3 times (10 min. each) with Tris-buffered saline/Tween 20 (TBST) and then treated with horseradish peroxidase (HRP)-conjugated secondary antibody (1:10000) for 1 h. The membrane was washed again with TBST. The membrane-binding antibodies were visualized later with the ECL detection reagent and images were acquired in a Fusion SL Imaging System. Band density was analyzed by densitometry using Image J software.

[2] = system: LPS-stimulated RAW 264.7 cells; experiment: ELISA of cytokines in supernatants of LPS-stimulated RAW 264.7 cells; assay type: cell-based, murine
Protocol: Cells were sub-cultured by scraping when plates reached 70-80% confluence with a 1:5 ratio in fresh medium. RAW 264.7 cells were plated at density of 1×10^5 cells and allowed for attachment. The growth medium was then replaced with fresh medium without FBS and incubated for 6 h then cells were pre-treated with different concentrations of synthetic peptides: IS 111 (3.12, 6.25, 12.5, 25, 50 and 100 μg/mL) or dexamethasone (500 μg/mL) as a positive control for 1 h followed by stimulation of LPS (1 μg/mL) and then further incubated for 18 h and were allowed to adhere. After 18 h of incubation, plates were centrifuged for 6 min at 400×g and the supernatants and cell lysates were collected and kept frozen at −80° C. until used for further analysis.
At the end of the treatment period, cells were harvested in RNA isoplus reagent for subsequent cellular RNA extraction, for RTqPCR. The pro & anti-inflammatory cytokine production in supernatants was estimated by using ELISA, RTqPCR and western blotting in cell lysates. The experiment was carried out in triplicate. LPS and Dexamethasone were used as the controls.
The following treatments were applied for the anti-inflammatory test: • (1) The negative control: RAW 264.7 cells without being induced by lipopolysaccharide; no drug treatment. • (2) The positive control: RAW264.7 cells that were induced by […] of lipopolysaccharide (LPS group). • (3) The mixture of Synthetic peptides: IS 111 (3.12, 6.25, 12.5, 25, 50 and 100 μg/ml), LPS (1 μg/mL) and RAW 264.7 cells; and • (4) The standard positive control: The mixture of dexamethasone (500 μg/mL), LPS (1 μg/mL), and RAW 264.7 cells.
The levels of IL-6, TNF-α, IL-1β, and IL-10 in the supernatants of RAW 264.7 cell cultures were determined using an ELISA kit, according to the manufacturer's instructions (R&D Systems).

BALB/C mice = experiment: Acute toxicity study, single dose; assay type: in vivo
Protocol: Once after acclimation period, a total of forty mice for IV route of administration, forty mice (half male and half female)/route were randomized based on bodyweight divided into four groups (10 in each group/per route, in each group 5 per sex) per strain via IV route of administration; prior to dosing initiation (table 12). On the day of dosing (designated as Day 0 of the study), the mice were 6 weeks old, and their body weights ranged from 20 to 25 g. The dosing volume was 0.1 ml per mice and the actual volume of peptide IS 111 solution administered was calculated based on body weight measurements obtained on the day of administration and was administered IV in increasing doses of the synthetic test peptide IS 111 0.6, 2.4, & 4.8 mg/kg; (administration once). The routes of administration were the same proposed for use in humans [Food and Drug Administration, 1988]. Prior to dosing the animals were deprived of food for 12 hours but had free access to drinking water. […]
After a single dose administration, mortality and clinical signs associated with toxicity were observed and recorded daily for consecutive two weeks; body weight changes were measured before and after administration on the 14th day. The animals were observed frequently during the first 4-6-hour period following dose administration and once daily, thereafter, for […], during which animals were evaluated for mortality, clinical signs of toxicity, and behavior. […] The number of animals killed for each of the doses was noted and the LD50 calculated by the Up and Down method, which is one of the most used to reduce the number of animals used [P. A. Botham, 2004]. […]
The mortality, general health status, and toxic reaction symptoms of the experimental groups were documented. Before the first day of IS 111 administration and during the experiments, a detailed clinical observation was carried out and recorded the changes in skin, eyes and mucous membrane, respiratory system, nervous system, activity, and behaviors of the […]. The body weight was measured and recorded before the first day of administration.

[3] = 3.12-100 μg/mL pretreatment, LPS 18 h, vs LPS group

FAKKFAK [IS 111, Phe-Ala-Lys-Lys-Phe-Ala-Lys]
IL-10 levels (western blot) ([1]; IS111 treated cells): increased
Phosphorylation of ERK (p-ERK1/2) ([1]; LPS-induced, western blot): significantly inhibited
LPS-induced increase of p38 phosphorylation ([1]; concentration-dependent, western blot): markedly prevented
IL-1β production (ELISA) [2, 3]: inhibited
IL-6 levels (ELISA) [2, 3]: reduced
IL-10 levels (ELISA) [2, 3]: significantly increased
TNF-alpha levels (ELISA) [2, 3]: significantly reduced
Concentration with better inhibition of TNF-α, IL-1β and IL-6 than 100 μg/mL ([2]; LPS induced RAW 264.7): 25 µg/mL
NO production ([2]; LPS-stimulated RAW cells, summary table): ↓Cytotoxicity; ↓ NO production; ↓
Adverse reaction in acute toxicity tests (BALB/C mice; any of the concentrations): no adverse reaction
Mortality (BALB/C mice; single dose 0.6, 2.4, 4.8 mg/kg, 14 days): No mortality
Body weight and organ weights (BALB/C mice; single dose 0.6/2.4/4.8 mg/kg, intravenous): no changes
